Results as given in paper PMC4624771, “Oriented Cell Division in the C. elegans Embryo Is Coordinated by G-Protein Signaling Dependent on the Adhesion GPCR LAT-1” (PLoS Genetics, 2015).

What was measured:
wild-type embryos = test: Embryonic lethality after adenylyl cyclase inhibition, wild-type; type: in vivo, C. elegans; settings: adult hermaphrodites and subsequently very early embryos, 1 mM ddA vs 1% DMSO mock; n > 520
Method: (§1) All compounds were obtained from Sigma Aldrich. Forskolin was dissolved in DMSO to 10 mM, 3-isobutyl-1-methylxanthine (IBMX) in Dent´s buffer to 10 mM, 8-bromoadenosine 3′,5′-cyclic monophosphate (8-Br-cAMP) in 1 N ammonium hydroxide to 250 mM and 2',5'-dideoxyadenosine (ddA) was diluted in DMSO to 100 mM prior to final dilution in Dent´s buffer. Peptides were synthesized (see Supporting Experimental Procedures) and dissolved in DMSO to 100 mM prior to final dilution in M9. Worms were incubated in 80 μM forskolin, 10 mM IBMX, 0.25 mM 8-Br-cAMP, 1 mM ddA or 0.1 mM peptide solution, respectively, containing E. coli OP50.
(§2) Supplementary file pgen.1005624.s005.tif: S4 Fig Inhibition of adenylyl cyclases in wild-type hermaphrodites partially mimics the lat-1 phenotype. […] Note that this effect might be not fully penetrant due potential difficulties in drug accessibility. As controls, nematodes were treated with 1% DMSO lacking ddA (mock). Individuals surviving embryogenesis were scored (n > 520). Data are given as means ± SD. n.s. not significant; *** p < 0.001. (TIF) Click here for additional data file.

lat-1 mutant embryos = test: Embryonic lethality after adenylyl cyclase inhibition, lat-1 mutants; type: in vivo, C. elegans; settings: 1 mM ddA vs 1% DMSO mock; n > 520
Method: as §1, §2

[1] = tested on: cAMP levels in C. elegans embryos and adults; test: In vivo cAMP measurement in C. elegans embryos and adults; settings: cAMP accumulation assay after lysis
From the text: (§3) Fig 2 Division plane defects in lat-1 mutant embryos are rescued by elevation of intracellular cAMP via a Gs protein/adenylyl cyclase pathway. […] In wild-type embryos treated with the RNAi control vector L4440 ABal divides in an anterior-posterior direction (A) whereas in treated lat-1 mutants the division plane is almost perpendicular to MS (B). gsa-1 RNAi by feeding over two generations leads to a turning of the F2 ABal division plane in a direction similar to that in lat-1 mutants (C). F2 lat-1; gsa-1(RNAi) embryos show a similar ABal division plane to lat-1 mutants (D). (E) Cell division plane angles of ABal relative to MS after knockdown of gsa-1. […] The vector L4440 served as negative control. Data are shown as means ± SD. * p < 0.05; *** p < 0.001; n ≥ 11. (F) cAMP levels are reduced in lat-1 embryos compared to a control wild-type population. cAMP levels were measured after lysis (15 μg protein) by cAMP accumulation assay. Assays were performed in three independent experiments, data are given as means ± SD. ** p < 0.01. […] Mothers and subsequently offspring of wild-type and lat-1 individuals were incubated and individuals reaching adulthood were scored (n = 410). […] Data were calculated from pixel analyses utilizing DIC images and are shown as means ± SD, ** p < 0.01. […]

lat-1 mutants = test: Fertility rescue assay (brood size); type: in vivo, C. elegans; settings: 80 μM forskolin, independently of time and duration of drug application
Method: Supplementary file pgen.1005624.s004.tif: S3 Fig A cAMP-mediated signal is involved in the role of LAT-1 in cleavage plane orientation but not in fertility. (A) Fertility defects of lat-1 mutants are not rescued by treatment of hermaphrodites from embryonic stages to adulthood with 80 μM forskolin. Brood size was scored compared to untreated (mock), DMSO-treated (0.8%) and wild-type control. Data are given as means ± SD, n.s. not significant. […] (TIF) Click here for additional data file.
Ten L4 hermaphrodites were allowed to lay eggs on separate NGM plates containing 80 µM forskolin or respective solvent and seeded with OP50. Plates were incubated at 22 °C. Every 24 hours hermaphrodites were transferred onto fresh plates until egg-laying ceased and embryos were scored. Experiments were conducted at least in triplicate. Data were examined with an unpaired two-tailed t test for each genotype and condition, means are presented with SD.

lat-1(ok1465) nematodes = test: Lethality rescue assay in lat-1 mutant nematodes; type: in vivo
From the text: Fig 2 Division plane defects in lat-1 mutant embryos are rescued by elevation of intracellular cAMP via a Gs protein/adenylyl cyclase pathway. […] In wild-type embryos treated with the RNAi control vector L4440 ABal divides in an anterior-posterior direction (A) whereas in treated lat-1 mutants the division plane is almost perpendicular to MS (B). gsa-1 RNAi by feeding over two generations leads to a turning of the F2 ABal division plane in a direction similar to that in lat-1 mutants (C). F2 lat-1; gsa-1(RNAi) embryos show a similar ABal division plane to lat-1 mutants (D). (E) Cell division plane angles of ABal relative to MS after knockdown of gsa-1. […] The vector L4440 served as negative control. Data are shown as means ± SD. * p < 0.05; *** p < 0.001; n ≥ 11. (F) cAMP levels are reduced in lat-1 embryos compared to a control wild-type population. cAMP levels were measured after lysis (15 μg protein) by cAMP accumulation assay. Assays were performed in three independent experiments, data are given as means ± SD. ** p < 0.01. (G) Rescue of developmental lethality in lat-1 nematodes treated with compounds promoting cAMP accumulation: forskolin (80 μM), IBMX (10 mM) and 8-Br-cAMP (0.25 mM). Mothers and subsequently offspring of wild-type and lat-1 individuals were incubated and individuals reaching adulthood were scored (n = 410). As controls, nematodes were incubated in solvent without drug (mock). Data are shown as means ± SD. * p < 0.05; ** p < 0.01; *** p < 0.001. (H) Forskolin increases cAMP levels in C. elegans embryos and adults. lat-1 mutants and subsequently embryos were incubated with 80 μM forskolin. […] As controls, nematodes were treated with 0.8% DMSO lacking forskolin (mock). Basal cAMP levels of mock control are: 0.70 ± 0.14 nM (wild-type embryos); 0.37 ± 0.19 nM (lat-1 embryos); 1.9 ± 0.7 nM (wild-type adults); 2.3 ± 0.8 nM (lat-1 adults). Assays were performed in three independent experiments, data are given as means ± SD. * p < 0.05; ** p < 0.01; *** p < 0.001. (I-L) Relative positions of ABala, ABalp, and MS in an AB^4 embryo. Schematic representation (top) and DIC microscopy (bottom), scale bars = 10 μm. In wild-type embryos (I) and embryos incubated in 80 μM forskolin for 120 minutes (K) ABal divides in an anterior-posterior direction with only ABalp forming an interface with MS. In lat-1 mutants the division plane is skewed resulting in ABala and ABalp contacting MS (J). lat-1 embryos treated with 80 μM forskolin for 120 minutes display wild-type division and cell interfaces (L). (M) Arrangement of blastomeres in the 12-cell stage embryo. […] The right-hand side is two views of the mean positions of the blastomeres. The spheres are enlarged to convey an impression of the contacts. Forskolin turns the ABal spindle in the mutant in a more anterior direction. (N) Cell division plane angles of ABal relative to MS of untreated wild-type/lat-1 controls and wild-type/lat-1 embryos after incubation of mothers and subsequently embryos for 48 hours in 80 μM forskolin. Upon forskolin treatment, mutant embryos display a wild-type division angle. As controls, nematodes were treated with 0.8% DMSO lacking forskolin (mock). Data are shown as average angles ± SD, *** p < 0.001; n ≥ 12. (O) Forskolin reduces the contact length of ABala to MS. Ratio of relative contact lengths of ABala to MS and ABalp to MS cells lat-1 embryos untreated (control, n = 10) and after incubation of mothers and subsequently embryos for 48 hours in 80 μM forskolin (n = 11). […] Data were calculated from pixel analyses utilizing DIC images and are shown as means ± SD, ** p < 0.01.
All compounds were obtained from Sigma Aldrich. Forskolin was dissolved in DMSO to 10 mM, 3-isobutyl-1-methylxanthine (IBMX) in Dent´s buffer to 10 mM, 8-bromoadenosine 3′,5′-cyclic monophosphate (8-Br-cAMP) in 1 N ammonium hydroxide to 250 mM and 2',5'-dideoxyadenosine (ddA) was diluted in DMSO to 100 mM prior to final dilution in Dent´s buffer. […]

C. elegans embryos = test: Contact length ratio of ABala-MS to ABalp-MS in embryos; type: in vivo; settings: n = 11
From the text: as §3

[2] = target: rat latrophilin LPHN1 (ADGRL1) (rat) (UniProt O88917)
UniProt O88917, sequence (O88917 25-1515): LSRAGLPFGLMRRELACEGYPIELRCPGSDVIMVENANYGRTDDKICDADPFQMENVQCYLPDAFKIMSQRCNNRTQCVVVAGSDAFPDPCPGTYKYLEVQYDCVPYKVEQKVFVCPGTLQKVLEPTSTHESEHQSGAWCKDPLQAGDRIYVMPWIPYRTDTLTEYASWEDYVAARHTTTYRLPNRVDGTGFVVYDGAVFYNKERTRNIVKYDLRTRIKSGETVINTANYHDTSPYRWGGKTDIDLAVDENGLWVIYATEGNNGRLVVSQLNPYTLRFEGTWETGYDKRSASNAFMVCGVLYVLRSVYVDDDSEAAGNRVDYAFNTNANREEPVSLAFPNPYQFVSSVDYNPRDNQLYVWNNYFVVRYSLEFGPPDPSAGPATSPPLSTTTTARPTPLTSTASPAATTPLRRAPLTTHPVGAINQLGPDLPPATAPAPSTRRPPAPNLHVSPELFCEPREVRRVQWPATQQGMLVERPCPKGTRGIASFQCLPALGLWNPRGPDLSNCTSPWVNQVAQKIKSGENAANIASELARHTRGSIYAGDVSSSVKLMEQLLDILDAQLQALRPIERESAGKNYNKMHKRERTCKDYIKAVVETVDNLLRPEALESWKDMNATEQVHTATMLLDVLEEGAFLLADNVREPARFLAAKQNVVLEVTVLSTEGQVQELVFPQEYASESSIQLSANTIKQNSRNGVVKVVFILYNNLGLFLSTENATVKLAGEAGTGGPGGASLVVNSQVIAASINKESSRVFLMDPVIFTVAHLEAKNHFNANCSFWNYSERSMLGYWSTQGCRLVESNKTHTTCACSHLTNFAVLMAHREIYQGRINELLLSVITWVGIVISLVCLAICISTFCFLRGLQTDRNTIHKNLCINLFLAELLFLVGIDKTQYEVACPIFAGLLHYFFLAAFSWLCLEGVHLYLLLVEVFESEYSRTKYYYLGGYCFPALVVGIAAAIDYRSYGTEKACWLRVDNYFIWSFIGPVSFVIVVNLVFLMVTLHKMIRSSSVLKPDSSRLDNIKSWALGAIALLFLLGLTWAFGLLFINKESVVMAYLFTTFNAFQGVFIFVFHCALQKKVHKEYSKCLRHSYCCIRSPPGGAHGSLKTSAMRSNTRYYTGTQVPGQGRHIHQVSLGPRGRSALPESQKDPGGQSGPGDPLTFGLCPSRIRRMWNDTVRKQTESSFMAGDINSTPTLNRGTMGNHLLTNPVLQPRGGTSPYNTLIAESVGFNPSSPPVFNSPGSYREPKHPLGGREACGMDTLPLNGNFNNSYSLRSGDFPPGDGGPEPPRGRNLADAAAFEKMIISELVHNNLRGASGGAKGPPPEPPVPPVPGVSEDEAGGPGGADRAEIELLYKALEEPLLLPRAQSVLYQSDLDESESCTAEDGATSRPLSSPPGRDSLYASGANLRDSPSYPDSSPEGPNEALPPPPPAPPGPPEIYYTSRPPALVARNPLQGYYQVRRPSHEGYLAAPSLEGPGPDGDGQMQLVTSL

[3] = target: T1, C. elegans latrophilin homolog LAT-1 (C. elegans) (UniProt G5EDW2)
T1 sequence: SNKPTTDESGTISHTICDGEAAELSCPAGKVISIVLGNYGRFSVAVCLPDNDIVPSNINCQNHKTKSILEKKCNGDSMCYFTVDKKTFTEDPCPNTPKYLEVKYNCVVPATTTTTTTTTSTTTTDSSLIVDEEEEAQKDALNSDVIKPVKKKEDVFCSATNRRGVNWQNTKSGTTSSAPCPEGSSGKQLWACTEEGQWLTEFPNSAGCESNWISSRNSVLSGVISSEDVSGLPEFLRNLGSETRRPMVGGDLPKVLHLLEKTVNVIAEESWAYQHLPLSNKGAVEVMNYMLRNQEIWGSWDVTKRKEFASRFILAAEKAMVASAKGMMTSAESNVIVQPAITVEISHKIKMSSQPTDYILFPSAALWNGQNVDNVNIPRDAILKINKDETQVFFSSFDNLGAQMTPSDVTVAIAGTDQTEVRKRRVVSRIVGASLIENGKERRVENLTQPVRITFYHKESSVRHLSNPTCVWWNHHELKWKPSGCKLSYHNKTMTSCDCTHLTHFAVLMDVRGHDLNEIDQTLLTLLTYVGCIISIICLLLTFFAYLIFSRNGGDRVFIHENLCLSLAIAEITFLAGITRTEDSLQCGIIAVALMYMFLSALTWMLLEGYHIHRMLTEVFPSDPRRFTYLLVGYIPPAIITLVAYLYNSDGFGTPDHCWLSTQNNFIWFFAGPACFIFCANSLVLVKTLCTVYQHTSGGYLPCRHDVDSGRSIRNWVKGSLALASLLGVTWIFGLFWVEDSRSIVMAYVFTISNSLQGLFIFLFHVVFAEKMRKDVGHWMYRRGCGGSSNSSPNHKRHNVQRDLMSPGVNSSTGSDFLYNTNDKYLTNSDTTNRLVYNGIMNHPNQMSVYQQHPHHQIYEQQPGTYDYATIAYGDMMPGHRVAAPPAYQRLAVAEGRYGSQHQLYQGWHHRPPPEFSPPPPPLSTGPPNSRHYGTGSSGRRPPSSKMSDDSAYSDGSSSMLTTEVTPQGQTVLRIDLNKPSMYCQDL

Question: Which “embryonic lethality in wild-type, in words” value (wild-type embryos) does the source give for `C[C@H]1O[C@@H](n2cnc3c(N)ncnc32)C[C@@H]1O` [ddA, 2',5'-dideoxyadenosine] here?
Answer: specific embryonic lethality

Question: And the “embryonic lethality in lat-1 mutant embryos, in words” value (lat-1 mutant embryos)?
Answer: not in lat-1 mutant embryos

Question: `C=C[C@@]1(C)CC(=O)[C@]2(O)[C@@]3(C)[C@@H](O)CCC(C)(C)[C@@H]3[C@H](O)[C@H](OC(C)=O)[C@@]2(C)O1` [forskolin] was tested. Which “cAMP levels in embryos, in words” value ([1]; lat-1 mutants and subsequently embryos incubated with 80 μM forskolin vs 0.8% DMSO mock) did it give?
Answer: increase in cAMP levels

Question: What about the “cAMP in hermaphrodites, in words” value ([1]; wild-type and lat-1 hermaphrodites (L4 stage), 80 μM forskolin 48 hours vs 0.8% DMSO mock) of the same molecule?
Answer: elevated cAMP

Question: What about the “rescue of reduced brood size of lat-1 mutants, in words” value (lat-1 mutants) of the same molecule?
Answer: did not detect any rescue

Question: What about the “effect on embryonic lethality of lat-1 worms, in words” value (lat-1(ok1465) nematodes; L4 larvae and subsequently embryos incubated, forskolin 80 μM, IBMX 10 mM, 8-Br-cAMP 0.25 mM) of the same molecule?
Answer: amelioration of embryonic lethality

Question: And the “time point of drug application needed for rescue of developmental lethality, in words” value (lat-1(ok1465) nematodes; lat-1 mutants, 80 μM forskolin)?
Answer: only when adding forskolin to the mother or the very early embryonic stages

Question: And the “survival rate (individuals reaching adulthood)” value (lat-1(ok1465) nematodes; lat-1 worms, mothers (L4) and subsequently offspring incubated in 80 μM forskolin, untreated 33%)?
Answer: 73%

Question: What about the “effect of concentrations higher than 80 μM on C. elegans, in words” value (lat-1(ok1465) nematodes; various concentrations tested) of the same molecule?
Answer: higher concentrations were detrimental

Question: What about the “concentration with optimal effect” value (lat-1(ok1465) nematodes; various concentrations tested on C. elegans) of the same molecule?
Answer: 80 µM

Question: What about the “contact of ABala to MS in wild-type embryos, in words” value (C. elegans embryos; forskolin-treated wild-type embryos, 80 μM) of the same molecule?
Answer: does not contact MS

Question: And the “contact of ABala to MS in lat-1 embryos, in words” value (C. elegans embryos; lat-1 embryos, mothers and subsequently embryos 48 hours in 80 μM forskolin, untreated ratio 0.72 ± 0.03)?
Answer: strongly reduced

Question: With “RP13, peptide of 13 amino acids C-terminal of the rat LPHN1 GPS cleavage site” as the molecule, how does the cAMP accumulation (ALPHAScreen) in COS-7 cells transfected with rat LPHN1 and stimulated with 1 mM peptide, fold over basal [2] read?
Answer: 2.3 fold

Question: For THFAVLMDVRGH [CP12, peptide of 12 amino acids C-terminal of the LAT-1 GPS cleavage site], which cAMP accumulation (ALPHAScreen) in lat-1-transfected COS-7 cells stimulated with 1 mM peptide, fold over basal [3] is on record?
Answer: 1.6 fold
